According to US20100305055A1, “COMBINATIONS OF POLYENE FUNGICIDE WITH CATIONIC SURFACTANTS” (Laboratorios Miret, S.A., priority 2007, published 2010):
“Also recorded” adds a separate entry of the source.

Columns and labels:
Rhizopus = assay: MIC and synergy index of natamycin/LAE solutions; type: cell-based
Description: (§1) In this example the influence of the synergism of combinations of LAE and natamycin in the inventive composition has been investigated.
(§2) For that purpose propylene glycol solutions with different concentrations of LAE and natamyin were prepared.
(§3) The effects of these preparations were investigated against the moulds Aspergillus niger, Penicillium caseicolum, Cladosporium cladosporioides and Rhizopus, the bacteria Escherichia coli (ATCC 8739), Salmonella typhimurium (ATCC 14028), Listeria monocytogenes (ATCC 15313), Bacillus subtilis (ATCC 6633) and the yeasts Candida albicans (ATCC 10231) and Saccharomyces cerevisiae (ATCC 9763).
(§4) The table indicates the MIC values found at different relationship between natamycin and LAE, whereby a value for natamycin: LAE 1:1 means the same concentration for both substances in the antimicrobial composition.
(§5) The interaction of the two components of the antimicrobial mixture is calculated according to the method described by Kull et al. (Kull F. C., Eisman P. C., Sylwestrowicz H. D. and Mayer R. L., Applied Microbiology, 1961; 6: 538-541). According to this method the so-called synergy index is calculated according to the following formula:
(§6) Synergy index SI=Qlae/QLAE+Qn/QN.
(§7) The elements used for the calculation of the synergy index according to the above formula have the following meaning: • Qlae=minimum inhibition concentration of LAE in the mixture of LAE and natamycin, • QLAE=minimum inhibition concentration of LAE as single antimicrobial without natamycin, • Qn=minimum inhibition concentration of natamycin in the mixture of LAE and natamycin and • QN=minimum inhibition concentration of natamycin as single antimicrobial without LAE.
(§8) All indicated symbols indicate a particular concentration leading to a particular end point, in this case the inhibition of growth of the microorganisms, so that the selected end point is in fact the minimal inhibitory concentration (MIC).
(§9) When the synergy index is 1, then there is an addition of the effects of the two components.
(§10) Qn: MIC of natamycin in the mixture of natamycin and LAE QN: MIC of natamycin alone Qlae: MIC of LAE in the mixture of natamycin and LAE QLAE: MIC of LAE alone

[1] = tested on: Candida albicans ATCC 10231; assay: MIC and synergy index of natamycin/LAE solutions; type: cell-based
Description: as §1, §2, §3, §4, §5, §6, §7, §8, §9, §10

Penicillium caseicolum = assay: MIC and synergy index of natamycin/LAE solutions; type: cell-based
Description: as §1, §2, §3, §4, §5, §6, §7, §8, §9, §10

[2] = tested on: Cladosporium cladosporioides; assay: MIC and synergy index of natamycin/LAE solutions; type: cell-based
Description: as §1, §2, §3, §4, §5, §6, §7, §8, §9, §10

Aspergillus niger = assay: MIC and synergy index of natamycin/LAE solutions; type: cell-based
Description: as §1, §2, §3, §4, §5, §6, §7, §8, §9, §10

[3] = tested on: Saccharomyces cerevisiae ATCC 9763; assay: MIC and synergy index of natamycin/LAE solutions; type: cell-based
Description: as §1, §2, §3, §4, §5, §6, §7, §8, §9, §10

[4] = tested on: Bacillus subtilis ATCC 6633; assay: MIC and synergy index of natamycin/LAE solutions; type: cell-based
Description: as §1, §2, §3, §4, §5, §6, §7, §8, §9, §10
(§11) The MIC values of natamycin alone (QN) reported in tables 5 to 8 corresponds to the maximum value studied. However, the real MIC of natamycin is higher than the maximum values studied (i.e.: 1024, 2048), accordingly the real SI should be lower than the SI reported in the tables.

[5] = tested on: Escherichia coli ATCC 8739; assay: MIC and synergy index of natamycin/LAE solutions; type: cell-based
Description: as §1, §2, §3, §4, §5, §6, §7, §8, §9, §10, §11

[6] = tested on: Listeria monocytogenes ATCC 15313; assay: MIC and synergy index of natamycin/LAE solutions; type: cell-based
Description: as §1, §2, §3, §4, §5, §6, §7, §8, §9, §10, §11

[7] = tested on: Salmonella typhimurium ATCC 14028; assay: MIC and synergy index of natamycin/LAE solutions; type: cell-based
Description: as §1, §2, §3, §4, §5, §6, §7, §8, §9, §10, §11

[8] = tested on: Penicillum casicolum, Rizopus, Aspergillus niger and Cladosporium cladosporioides; assay: Microbiocidal effect on inoculated cured cheese immersed in baths; type: cell-based; conditions: Lauric arginate 10% bath, 5 seconds immersion; inoculated 4 log CFU/g; 22° C.; up to 15 days; separate treatments; monohydrochloride
Description: Cured cheese was purchased from a local producer. The cheese contains cow milk, sheep milk, goat milk, starters, salt, rennet. The minimum amount of fat 55%/dry weight. Minimum 45 dry weight. Lauric arginate-from […] with purity 90% Ethyl-N^α-lauroyl-L-arginate HCl. Natamycin-95% in dry weight commercially available. Inoculums is a mix of Penicillum casicolum, Rizopus, Aspergillus niger and Cladosporium cladosporioides. Spores seeded in Sabouraud Chloramphenirol agar are incubated at 25° C. for 5 days. Spores are scraped of the agar with Ringer broth and diluted in Brain Heart Infusion broth. Brain Heart Infusion broth is incubated at 25° C. for 5 days. Diluted inoculums are mixed at the desire concentration in order to have the mix inoculums. […] The cheese was sliced and cut in equal portions of 5 centimeters of diameter by 5 millimeters wide in sterile surroundings. The portions of cheese were immersed in the bath for 5 seconds. They were dripped and dried for 5 minutes in a sterile surface. After this, each sample was inoculated with Penicillum casicolum, Rizopus, Aspergillus niger and Cladosporium cladosporioides at target concentration of 4 log CFU/g. Natamycin 95% concentrations: two differently concentrated baths of natamycin were prepared: 500 ppm and 1000 ppm. Lauric arginate concentrations: four differently concentrated baths of Lauric arginate were prepared: 0.5%, 1%, 5% and 10%. […]

[9] = Solubility of natamycin in aqueous solution with LAE; type: physicochemical; conditions: 10% of LAE in water
Source text: According to the dose level between natamycin and LAE, the total solubility of natamycin was observed. […] This low viscosity improves the application process of the solution in the product desired to be treated.

[10] = cited from earlier work
[11] = value is the maximum value studied, real MIC is higher

CCCCCCCCCCCC(=O)N[C@@H](CCCN=C(N)N)C(=O)OCC.Cl [LAE, ethyl ester of the lauramide of the arginine monohydrochloride]
QLAE: MIC of LAE alone (Rhizopus): 648
QLAE: MIC of LAE alone [1]: 16
QLAE: MIC of LAE alone (Penicillium caseicolum): 256
QLAE: MIC of LAE alone [2]: 64
QLAE: MIC of LAE alone (Aspergillus niger): 128
QLAE: MIC of LAE alone [3]: 32
QLAE: MIC of LAE alone [4]: 16
QLAE: MIC of LAE alone [5]: 32
QLAE: MIC of LAE alone [6]: 32
QLAE: MIC of LAE alone [7]: 32
inhibitory power / microbiocidal effect on cured cheese [8]: best treatment; also recorded: effective

C[C@@H]1C/C=C/C=C/C=C/C=C/[C@H](O[C@@H]2O[C@H](C)[C@@H](O)[C@H](N)[C@@H]2O)C[C@@H]2O[C@](O)(C[C@@H](O)C[C@H]3O[C@@H]3/C=C/C(=O)O1)C[C@H](O)[C@H]2C(=O)O [natamycin]
QN: MIC of natamycin alone (Rhizopus): 4
QN: MIC of natamycin alone [1]: 2
QN: MIC of natamycin alone (Penicillium caseicolum): 1
QN: MIC of natamycin alone [2]: 1
QN: MIC of natamycin alone (Aspergillus niger): 2
QN: MIC of natamycin alone [3]: 2.5
QN: MIC of natamycin alone [4, 11]: > 2048
QN: MIC of natamycin alone [5, 11]: > 1024
QN: MIC of natamycin alone [6, 11]: > 1024
QN: MIC of natamycin alone [7, 11]: > 2048
natamycin solubilised [9]: more than 1000 ppm
solubility of natamycin in water [10]: 0.005-0.010 % (w/w)
